Assay results taken from the NIST ThermoML archive (doi:10.1007/s10765-015-1980-6).

Test: xn = mol fraction of the nth substance listed
Conditions: 101 kPa, Liquid; for speed of sound: Frequency=2 MHz; for mass density: Pycnometric method

OCCCCO [1,4-butanediol] + OCCOCCO
speed of sound [m/s], Linear variable-path acoustic interferometer
Conditions | x2 = 0 | x2 = 0.108 | x2 = 0.1977 | x2 = 0.2897 | x2 = 0.4096 | x2 = 0.509 | x2 = 0.6116 | x2 = 0.6912 | x2 = 0.7992 | x2 = 0.8838
298.15 K | 1601.6 | 1568.1 | 1549.9 | 1543.5 | 1546.2 | 1552.2 | 1558.9 | 1564.5 | 1571.3 | 1575.3
303.15 K | 1589.3 | 1558.9 | 1542 | 1535.7 | 1538.6 | 1544 | 1550.2 | 1555.3 | 1561.2 | 1564.6
308.15 K | 1577.7 | 1549.8 | 1534.4 | 1528.2 | 1531.1 | 1536.3 | 1541.8 | 1546.4 | 1551.7 | 1554.7
313.15 K | 1565.6 | 1540.6 | 1526.6 | 1520.3 | 1523.2 | 1528.1 | 1533.1 | 1537.2 | 1541.7 | 1544.4

mass density [kg/m3]
Conditions | x2 = 0 | x2 = 0.108 | x2 = 0.1977 | x2 = 0.2897 | x2 = 0.4096 | x2 = 0.509 | x2 = 0.6116 | x2 = 0.6912 | x2 = 0.7992 | x2 = 0.8838
298.15 K | 1012.6 | 1019.9 | 1026.6 | 1035 | 1047 | 1057.6 | 1069.4 | 1078.5 | 1090.6 | 1100
303.15 K | 1009.6 | 1017.1 | 1024 | 1032.3 | 1044.3 | 1054.9 | 1066.5 | 1075.6 | 1087.6 | 1096.8
308.15 K | 1006.7 | 1014.4 | 1021.4 | 1029.6 | 1041.6 | 1052.1 | 1063.7 | 1072.6 | 1084.5 | 1093.6
313.15 K | 1003.7 | 1011.7 | 1018.7 | 1027 | 1038.9 | 1049.4 | 1060.8 | 1069.6 | 1081.3 | 1090.3

OCCOCCO [diethylene glycol] + CCC(C)O
speed of sound [m/s], Linear variable-path acoustic interferometer
Conditions | x1 = 0.1097 | x1 = 0.2096 | x1 = 0.2951 | x1 = 0.3876 | x1 = 0.512 | x1 = 0.592 | x1 = 0.6771 | x1 = 0.7984 | x1 = 0.8962 | x1 = 1
298.15 K | 1243.1 | 1273.6 | 1300.5 | 1330.6 | 1372 | 1400 | 1431.4 | 1480.5 | 1525.1 | 1579.3
303.15 K | 1225.2 | 1256.7 | 1283.5 | 1313.5 | 1356.2 | 1386.1 | 1418.2 | 1468.2 | 1513.4 | 1568
308.15 K | 1207.6 | 1239.8 | 1266 | 1296 | 1339.4 | 1370.1 | 1403 | 1454.1 | 1501.7 | 1557.3
313.15 K | 1190.1 | 1222.7 | 1249.1 | 1279.3 | 1323.4 | 1354.9 | 1389.2 | 1441.2 | 1490 | 1546.1

mass density [kg/m3]
Conditions | x1 = 0.1097 | x1 = 0.2096 | x1 = 0.2951 | x1 = 0.3876 | x1 = 0.512 | x1 = 0.592 | x1 = 0.6771 | x1 = 0.7984 | x1 = 0.8962 | x1 = 1
298.15 K | 838.7 | 871.6 | 899.5 | 929.3 | 968.6 | 993.4 | 1019.2 | 1055.1 | 1083.2 | 1112.7
303.15 K | 834.7 | 867.7 | 895.7 | 925.5 | 964.9 | 989.8 | 1015.8 | 1051.8 | 1079.9 | 1109.3
308.15 K | 830.7 | 863.9 | 891.9 | 921.8 | 961.2 | 986.2 | 1012.3 | 1048.4 | 1076.6 | 1105.9
313.15 K | 826.8 | 860.1 | 888.1 | 918 | 957.6 | 982.6 | 1008.9 | 1045.1 | 1073.3 | 1102.5

OCCOCCO [diethylene glycol] + CCCCO
Conditions | mass density, 298.15 K [kg/m3] | mass density, 303.15 K [kg/m3] | mass density, 308.15 K [kg/m3] | mass density, 313.15 K [kg/m3] | speed of sound, 298.15 K [m/s] | speed of sound, 303.15 K [m/s] | speed of sound, 308.15 K [m/s] | speed of sound, 313.15 K [m/s]
x1 = 0.1095 | 840.7 | 837 | 833.4 | 829.7 | 1265.9 | 1249.5 | 1232.3 | 1215.9
x1 = 0.2096 | 872.6 | 868.9 | 865.3 | 861.6 | 1294 | 1277.8 | 1261.3 | 1245.8
x1 = 0.2955 | 899.7 | 896.1 | 892.4 | 888.8 | 1320.9 | 1305.3 | 1289 | 1273.5
x1 = 0.3874 | 928.5 | 924.9 | 921.2 | 917.6 | 1350.8 | 1335.3 | 1318.7 | 1303.2
x1 = 0.5122 | 967.1 | 963.5 | 959.9 | 956.3 | 1392.3 | 1377.7 | 1361.9 | 1347.4
x1 = 0.592 | 991.5 | 988 | 984.4 | 980.9 | 1419.3 | 1406 | 1391.6 | 1378
x1 = 0.677 | 1017.3 | 1013.7 | 1010.2 | 1006.7 | 1448.9 | 1436.8 | 1424.2 | 1411.6
x1 = 0.7986 | 1053.5 | 1050.1 | 1046.6 | 1043.1 | 1492.7 | 1481.1 | 1470.1 | 1459.2
x1 = 0.896 | 1082.3 | 1078.8 | 1075.4 | 1072 | 1531.3 | 1520.6 | 1510 | 1500
x1 = 1 | 1112.7 | 1109.3 | 1105.9 | 1102.5 | 1579.3 | 1568 | 1557.3 | 1546.1
